In PubChem BioAssay AID248 (DTP/NCI, 2004) one finds T/C data, which are given here for 19 compounds.

Values joined by “and” are separate entries in the source; they are usually repeats but may differ in a detail not shown here. Equal entries are not always repeated. Toxic doses and inconclusive results are not listed.

For the assay, the system named is L1210 leukemia ip in BDF1 mice, survival T/C. Kind of assay: NCI In Vivo Anticancer Drug Screen. Data for tumor model L1210 Leukemia (intraperitoneal) in B6D2F1 (BDF1) mice. Particulars: endpoint: mean survival time, higher = longer survival. Put shortly:
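Ratio derived from survival: compound-dosed mice over vehicle-dosed mice, all bearing a transplantable tumor.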

The mark [1] stands for this setting: dose: 25.0 mg/kg/injection, schedule: Q01DX009 (ip), vehicle: saline with Tween-80.
Setting [2] is: dose: 50.0 mg/kg/injection, schedule: Q01DX009 (ip), vehicle: saline with Tween-80.
[3] abbreviates: dose: 50.0 mg/kg/injection, schedule: Q04DX003 (ip), vehicle: saline with Tween-80.
Where [4] appears, read: dose: 100.0 mg/kg/injection, schedule: Q01DX001 (ip), vehicle: Klucel (hydroxypropylcellulose) (HPC).
Where [5] appears, read: dose: 100.0 mg/kg/injection, schedule: Q01DX009 (ip), vehicle: saline with Tween-80.
The mark [6] stands for this setting: dose: 100.0 mg/kg/injection, schedule: Q04DX003 (ip), vehicle: saline with Tween-80.
The mark [7] stands for this setting: dose: 200.0 mg/kg/injection, schedule: Q01DX001 (ip), vehicle: Klucel (hydroxypropylcellulose) (HPC).
[8] abbreviates: dose: 200.0 mg/kg/injection, schedule: Q04DX003 (ip), vehicle: saline with Tween-80.
[9] abbreviates: dose: 400.0 mg/kg/injection, schedule: Q01DX001 (ip), vehicle: Klucel (hydroxypropylcellulose) (HPC).
The mark [10] stands for this setting: dose: 400.0 mg/kg/injection, schedule: Q04DX003 (ip), vehicle: saline with Tween-80.
The mark [11] stands for this setting: dose: 100.0 mg/kg/injection, schedule: Q04DX003 (ip), vehicle: saline.
The mark [12] stands for this setting: dose: 200.0 mg/kg/injection, schedule: Q04DX003 (ip), vehicle: saline.
The mark [13] stands for this setting: dose: 400.0 mg/kg/injection, schedule: Q04DX003 (ip), vehicle: saline.
The mark [14] stands for this setting: dose: 100.0 mg/kg/injection, schedule: Q04DX002 (ip), vehicle: Klucel (hydroxypropylcellulose) (HPC).
Where [15] appears, read: dose: 100.0 mg/kg/injection, schedule: Q04DX003 (ip), vehicle: Klucel (hydroxypropylcellulose) (HPC).
Where [16] appears, read: dose: 200.0 mg/kg/injection, schedule: Q04DX003 (ip), vehicle: Klucel (hydroxypropylcellulose) (HPC).
The mark [17] stands for this setting: dose: 400.0 mg/kg/injection, schedule: Q04DX003 (ip), vehicle: Klucel (hydroxypropylcellulose) (HPC).

As for `NC(=S)N=Nc1c(O)[nH]c(=O)[nH]c1=O`, the T/C runs as follows: (dose: 12.5 mg/kg/injection, schedule: Q01DX009 (ip), vehicle: saline with Tween-80) 98 % of control; (dose: 12.5 mg/kg/injection, schedule: Q04DX003 (ip), vehicle: saline with Tween-80) 97 % of control; under setting [1], 104 % of control; (dose: 25.0 mg/kg/injection, schedule: Q04DX003 (ip), vehicle: saline with Tween-80) 92 % of control; under setting [2], 104 % of control; under setting [3], 96 % of control.

Regarding `OC[CH2][Hg][Cl]`, the T/C was 94 % of control (dose: 1.56 mg/kg/injection, schedule: Q01DX009 (ip), vehicle: saline) and 86 % of control (dose: 3.13 mg/kg/injection, schedule: Q01DX009 (ip), vehicle: saline).

In the case of `COC1OCC2OC(C)(C)OC2C1OS(=O)(=O)c1ccc(C)cc1` (stereo not given), the T/C (dose: 50.0 mg/kg/injection, schedule: Q01DX001 (ip), vehicle: saline) was 91 % of control; the T/C (dose: 100.0 mg/kg/injection, schedule: Q01DX001 (ip), vehicle: saline) is 104 % of control; the T/C (dose: 200.0 mg/kg/injection, schedule: Q01DX001 (ip), vehicle: saline) is 102 % of control; the T/C (dose: 400.0 mg/kg/injection, schedule: Q01DX001 (ip), vehicle: saline) was 98 % of control and 96 % of control.

`ClCc1noc(-c2ccccc2)n1`: the T/C is 98 % of control (dose: 100.0 mg/kg/injection, schedule: Q04DX002 (ip), vehicle: saline with Tween-80); 95 % of control (dose: 200.0 mg/kg/injection, schedule: Q04DX002 (ip), vehicle: saline with Tween-80); 101 % of control (dose: 400.0 mg/kg/injection, schedule: Q04DX002 (ip), vehicle: saline with Tween-80).

Consider `Cc1ccc(NC(=O)c2ccc([N+](=O)[O-])cc2)c(C)c1`, for which the T/C runs as follows: under setting [4], 91 % of control; under setting [5], 96 % of control; under setting [6], 94 % of control; under setting [7], 94 % of control; (dose: 200.0 mg/kg/injection, schedule: Q01DX009 (ip), vehicle: saline with Tween-80) 102 % of control; under setting [8], 96 % of control. For the same compound, the T/C is 112 % of control under setting [9]; 96 % of control (dose: 400.0 mg/kg/injection, schedule: Q01DX009 (ip), vehicle: saline with Tween-80); 99 % of control under setting [10].

Regarding `CN(C)C/C(=C\c1ccccc1)C(=O)c1ccccc1`, the T/C (dose: 100.0 mg/kg/injection, schedule: Q04DX003 (ip), vehicle: other) was 98 % of control.

Regarding `O=C1c2ccccc2C(=O)N1Cc1nc(=S)[nH][nH]1`, the T/C is, setting by setting: (dose: 100.0 mg/kg/injection, schedule: Q01DX001 (ip), vehicle: saline with Tween-80) 100 % of control; (dose: 200.0 mg/kg/injection, schedule: Q01DX001 (ip), vehicle: saline with Tween-80) 97 % of control; (dose: 400.0 mg/kg/injection, schedule: Q01DX001 (ip), vehicle: saline with Tween-80) 97 % of control.

For the compound `c1cc[c]([Pb]([c]2ccccc2)([c]2ccccc2)[n]2ccc3ccccc32)cc1`, the T/C reads like this: (dose: 1.0 mg/kg/injection, schedule: Q04DX003 (ip), vehicle: saline with Tween-80) 113 % of control; (dose: 1.56 mg/kg/injection, schedule: Q01DX009 (ip), vehicle: saline with Tween-80) 91 % of control; (dose: 2.0 mg/kg/injection, schedule: Q04DX003 (ip), vehicle: saline with Tween-80) 90 % of control; (dose: 3.12 mg/kg/injection, schedule: Q01DX009 (ip), vehicle: saline with Tween-80) 89 % of control; (dose: 4.0 mg/kg/injection, schedule: Q04DX003 (ip), vehicle: saline with Tween-80) 101 % of control; (dose: 8.0 mg/kg/injection, schedule: Q04DX003 (ip), vehicle: saline with Tween-80) 101 % of control.

As for `Cc1ccc(-n2nnnc2N)c(C)c1`, the T/C runs as follows: under setting [11], 94 % of control; under setting [12], 91 % of control; under setting [13], 94 % of control.

Turning to `CC(C)(C)OC(=O)NC(CCCCNC(=O)C(F)(F)F)C(=O)ON1C(=O)CCC1=O` (stereo not given), the T/C is 93 % of control under setting [1], 95 % of control under setting [2] and 90 % of control under setting [5].

`O=[N+]([O-])CC(O)C(O)C(O)C(O)CO` (stereo not given): the T/C was 102 % of control under setting [11], 102 % of control under setting [12] and 102 % of control under setting [13].

Regarding `CC1C(C)(C)P(=O)(Oc2ccc3ccccc3c2)C1(C)C` (stereo not given), the T/C is, setting by setting: under setting [6], 100 % of control; under setting [8], 97 % of control; under setting [10], 92 % of control.

In the case of `COc1ccc(CC(N)C(=O)OCc2ccccc2)cc1N(CCCl)CCCl` (stereo not given), the T/C was 113 % of control (dose: 0.08 mg/kg/injection, schedule: Q01DX009 (ip), vehicle: saline); 118 % of control (dose: 0.15 mg/kg/injection, schedule: Q01DX009 (ip), vehicle: saline); 118 % of control (dose: 0.3 mg/kg/injection, schedule: Q01DX009 (ip), vehicle: saline); 110 % of control (dose: 0.75 mg/kg/injection, schedule: Q01DX001 (ip), vehicle: saline); 104 % of control (dose: 1.5 mg/kg/injection, schedule: Q01DX001 (ip), vehicle: saline); 93 % of control (dose: 6.0 mg/kg/injection, schedule: Q01DX009 (ip), vehicle: saline). Moreover, where the note is “dose: 12.5 mg/kg/injection, schedule: Q01DX001 (ip), vehicle: saline”, the T/C is 155 % of control.

For the compound `CC(C)(C)c1cc(/C=N/NC(=O)CCCCCCCCC(=O)N/N=C/c2cc(C(C)(C)C)c(O)c(C(C)(C)C)c2)cc(C(C)(C)C)c1O`, the T/C is, setting by setting: under setting [4], 104 % of control; (dose: 100.0 mg/kg/injection, schedule: Q01DX009 (ip), vehicle: Klucel (hydroxypropylcellulose) (HPC)) 94 % of control; under setting [14], 109 % of control; under setting [15], 111 % of control; under setting [7], 103 % of control; (dose: 200.0 mg/kg/injection, schedule: Q01DX009 (ip), vehicle: Klucel (hydroxypropylcellulose) (HPC)) 94 % of control and 90 % of control. Further, the T/C was 100 % of control (dose: 200.0 mg/kg/injection, schedule: Q04DX002 (ip), vehicle: Klucel (hydroxypropylcellulose) (HPC)); 110 % of control under setting [16]; 93 % of control under setting [9]; 102 % of control (dose: 400.0 mg/kg/injection, schedule: Q04DX002 (ip), vehicle: Klucel (hydroxypropylcellulose) (HPC)); 108 % of control under setting [17].

As to `CCCCCCCCCCCCCCCCCCN(c1ccc(C(=O)OCC)cc1)S(=O)(=O)c1ccc(C)cc1`, the T/C (dose: 50.0 mg/kg/injection, schedule: Q01DX009 (ip), vehicle: saline) was 93 % of control; the T/C (dose: 100.0 mg/kg/injection, schedule: Q01DX009 (ip), vehicle: saline) is 93 % of control; the T/C under setting [11] was 97 % of control; the T/C (dose: 200.0 mg/kg/injection, schedule: Q01DX009 (ip), vehicle: saline) was 90 % of control; the T/C under setting [12] is 94 % of control; the T/C under setting [13] is 94 % of control.

As for `Cc1cc(=O)[nH]n1-c1ccc([N+](=O)[O-])cc1`, the T/C was 94 % of control under setting [15], 97 % of control under setting [16] and 89 % of control under setting [17].

With `Cc1cccc(C(=O)OCc2ccccc2CN2CCCCC2)c1`, the T/C (dose: 25.0 mg/kg/injection, schedule: Q04DX002 (ip), vehicle: Klucel (hydroxypropylcellulose) (HPC)) was 105 % of control; the T/C (dose: 50.0 mg/kg/injection, schedule: Q04DX002 (ip), vehicle: Klucel (hydroxypropylcellulose) (HPC)) was 105 % of control; the T/C under setting [14] is 105 % of control.

On to `CCCCCC1CCC(OC(C)=O)CC1` (stereo not given), for which the T/C was 99 % of control under setting [4]; 101 % of control under setting [15]; 96 % of control under setting [7]; 95 % of control under setting [16]; 96 % of control under setting [9]; 93 % of control under setting [17].

`O=S(=O)(CBr)N1CCOCC1`: the T/C was 93 % of control under setting [3], 98 % of control under setting [6] and 98 % of control under setting [8].
